Results from the NIST ThermoML archive (doi:10.1021/je060411g).

Test: molar heat capacity at constant pressure
Conditions: 101.33 kPa

CC(C)(C)CO [2,2-dimethyl-1-propanol]
Conditions | molar heat capacity at constant pressure [J/K/mol]
155.06 K, Crystal 2, Vacuum adiabatic calorimetry | 99.89
157.04 K, Crystal 2, Vacuum adiabatic calorimetry | 100.86
159.01 K, Crystal 2, Vacuum adiabatic calorimetry | 101.85
160 K, Crystal 2 | 102.4
160.99 K, Crystal 2, Vacuum adiabatic calorimetry | 102.94
162.97 K, Crystal 2, Vacuum adiabatic calorimetry | 104.04
164.94 K, Crystal 2, Vacuum adiabatic calorimetry | 104.98
166.92 K, Crystal 2, Vacuum adiabatic calorimetry | 106.04
168.9 K, Crystal 2, Vacuum adiabatic calorimetry | 107.14
170 K, Crystal 2 | 107.8
170.88 K, Crystal 2, Vacuum adiabatic calorimetry | 108.23
172.86 K, Crystal 2, Vacuum adiabatic calorimetry | 109.18
174.83 K, Crystal 2, Vacuum adiabatic calorimetry | 110.28
176.81 K, Crystal 2, Vacuum adiabatic calorimetry | 111.23
178.79 K, Crystal 2, Vacuum adiabatic calorimetry | 112.41
180 K, Crystal 2 | 113.1
180.77 K, Crystal 2, Vacuum adiabatic calorimetry | 113.61
182.75 K, Crystal 2, Vacuum adiabatic calorimetry | 115.04
184.73 K, Crystal 2, Vacuum adiabatic calorimetry | 115.99
186.72 K, Crystal 2, Vacuum adiabatic calorimetry | 117.16
188.7 K, Crystal 2, Vacuum adiabatic calorimetry | 118.27
190 K, Crystal 2 | 119.2
190.69 K, Crystal 2, Vacuum adiabatic calorimetry | 119.62
192.68 K, Crystal 2, Vacuum adiabatic calorimetry | 120.83
194.67 K, Crystal 2, Vacuum adiabatic calorimetry | 122.08
196.66 K, Crystal 2, Vacuum adiabatic calorimetry | 123.36
198.66 K, Crystal 2, Vacuum adiabatic calorimetry | 124.74
200 K, Crystal 2 | 125.7
200.66 K, Crystal 2, Vacuum adiabatic calorimetry | 126.14
202.67 K, Crystal 2, Vacuum adiabatic calorimetry | 127.38
204.67 K, Crystal 2, Vacuum adiabatic calorimetry | 128.75
206.68 K, Crystal 2, Vacuum adiabatic calorimetry | 130.08
208.7 K, Crystal 2, Vacuum adiabatic calorimetry | 131.55
210 K, Crystal 2 | 132.5
210.71 K, Crystal 2, Vacuum adiabatic calorimetry | 132.96
212.71 K, Crystal 2, Vacuum adiabatic calorimetry | 134.53
214.72 K, Crystal 2, Vacuum adiabatic calorimetry | 136.27
216.71 K, Crystal 2, Vacuum adiabatic calorimetry | 138.22
220 K, Crystal 2 | 145
237.42 K, Crystal 1 | 158.16
239.45 K, Crystal 1 | 159.61
240 K, Crystal 1 | 160.1
241.42 K, Crystal 1 | 161.17
243.4 K, Crystal 1 | 162.58
245.38 K, Crystal 1 | 163.87
247.36 K, Crystal 1 | 165.12
249.33 K, Crystal 1 | 166.8
250 K, Crystal 1 | 167.3
251.31 K, Crystal 1 | 168.24
253.28 K, Crystal 1 | 169.62
255.26 K, Crystal 1 | 171.23
257.24 K, Crystal 1 | 172.85
259.21 K, Crystal 1 | 174.64
260 K, Crystal 1 | 175.3
261.18 K, Crystal 1 | 176.19
263.15 K, Crystal 1 | 177.74
265.1 K, Crystal 1 | 179.42
267.05 K, Crystal 1 | 181.32
268.99 K, Crystal 1 | 183.18
270 K, Crystal 1 | 184
270.93 K, Crystal 1 | 184.74
272.86 K, Crystal 1 | 186.95
274.77 K, Crystal 1 | 188.7
276.68 K, Crystal 1 | 190.91
278.57 K, Crystal 1 | 192.85
280 K, Crystal 1 | 194.5
280.46 K, Crystal 1 | 195.04
282.33 K, Crystal 1 | 197.11
284.2 K, Crystal 1 | 199.17
286.05 K, Crystal 1 | 201.41
287.9 K, Crystal 1 | 203.48
289.73 K, Crystal 1 | 205.72
290 K, Crystal 1 | 206
291.56 K, Crystal 1 | 207.85
293.37 K, Crystal 1 | 211.16
295.17 K, Crystal 1 | 213.27
298.15 K, Crystal 1 | 214.3
300 K, Crystal 1 | 216.4
310 K, Crystal 1 | 227.8
328.08 K, Liquid | 267.44
329.23 K, Liquid | 268.95
330 K, Liquid | 256.6
330.33 K, Liquid | 267.74
330.38 K, Liquid | 270.44
331.53 K, Liquid | 271.12
331.59 K, Liquid | 268.59
332.68 K, Liquid | 271.99
332.84 K, Liquid | 269.67
333.82 K, Liquid | 273.19
334.1 K, Liquid | 271.2
334.97 K, Liquid | 273.8
335.35 K, Liquid | 272.07
336.11 K, Liquid | 274.9
336.6 K, Liquid | 273.27
337.25 K, Liquid | 276.23
337.86 K, Liquid | 274.28
338.39 K, Liquid | 277.22
339.12 K, Liquid | 275.37
339.52 K, Liquid | 278.09
340 K, Liquid | 277.1
340.38 K, Liquid | 276.53
340.66 K, Liquid | 278.87
341.64 K, Liquid | 277.24
341.79 K, Liquid | 279.67
342.91 K, Liquid | 278.19
342.92 K, Liquid | 280.81
344.05 K, Liquid | 281.29
344.18 K, Liquid | 279.29
345.18 K, Liquid | 282
345.46 K, Liquid | 280.32
346.75 K, Liquid | 281.22
348.04 K, Liquid | 282.21
349.35 K, Liquid | 283.25
350 K, Liquid | 283.8
350.67 K, Liquid | 284.33
352.01 K, Liquid | 285.41
353.37 K, Liquid | 286.57
354.74 K, Liquid | 285.99
356.13 K, Liquid | 288.33
357.55 K, Liquid | 289.27
358.99 K, Liquid | 289.94
360 K, Liquid | 290.2
360.45 K, Liquid | 290.3
361.93 K, Liquid | 290.05
363.41 K, Liquid | 288.87
364.86 K, Liquid | 286.3
366.24 K, Liquid | 283
367.51 K, Liquid | 296.63
368.71 K, Liquid | 295.14
369.9 K, Liquid | 295.38
370 K, Liquid | 295.4
371.09 K, Liquid | 296.21
372.27 K, Liquid | 296.96
373.45 K, Liquid | 297.66
374.63 K, Liquid | 298.2
375.81 K, Liquid | 298.87
376.99 K, Liquid | 299.38
378.17 K, Liquid | 299.76
379.34 K, Liquid | 300.28
380.52 K, Liquid | 300.53
